Data from PubChem BioAssay AID1982 (Sanford-Burnham Center for Chemical Genomics, 2009).
Calls of active or inactive are those of the source. The rule behind the calls is not given here.

Tests used:
Assay in all cases: kinase panel binding selectivity, selectivity assay, biochemical, KINOMEscan (AID 1982)
ACVR2A = settings: KINOMEscan 353-kinase binding panel, qPCR, at 10 µM, active compounds read low
ADCK4 = settings: KINOMEscan 353-kinase binding panel, qPCR, at 10 µM, active compounds read low
AMPK-alpha2 = settings: KINOMEscan 353-kinase binding panel, qPCR, at 10 µM, active compounds read low
CAMK4 = settings: KINOMEscan 353-kinase binding panel, qPCR, at 10 µM, active compounds read low
CDKL2 = settings: KINOMEscan 353-kinase binding panel, qPCR, at 10 µM, active compounds read low
CSNK2A2 = settings: KINOMEscan 353-kinase binding panel, qPCR, at 10 µM, active compounds read low
[1] = target: Calcium/calmodulin-dependent protein kinase type II subunit delta (Homo sapiens) (UniProt Q13557); settings: KINOMEscan 353-kinase binding panel, qPCR; CAMK2D; at 10 µM; active compounds read low
[2] = target: Casein kinase II subunit alpha (Homo sapiens) (UniProt P68400); settings: KINOMEscan 353-kinase binding panel, qPCR; CSNK2A1; at 10 µM; active compounds read low
[3] = target: Dual specificity protein kinase CLK1 (Homo sapiens) (UniProt P49759); settings: KINOMEscan 353-kinase binding panel, qPCR, at 10 µM, active compounds read low
EPHA8 = settings: KINOMEscan 353-kinase binding panel, qPCR, at 10 µM, active compounds read low
FGFR4 = settings: KINOMEscan 353-kinase binding panel, qPCR, at 10 µM, active compounds read low
[4] = target: Fibroblast growth factor receptor 3 (Homo sapiens) (UniProt P22607); settings: KINOMEscan 353-kinase binding panel, qPCR, at 10 µM, active compounds read low
[5] = target: High affinity nerve growth factor receptor (Homo sapiens) (UniProt P04629); settings: KINOMEscan 353-kinase binding panel, qPCR; TRKA; at 10 µM; active compounds read low
[6] = target: Insulin-like growth factor 1 receptor (Homo sapiens) (UniProt P08069); settings: KINOMEscan 353-kinase binding panel, qPCR; IGF1R; at 10 µM; active compounds read low
[7] = target: MAP kinase-activated protein kinase 2 (Homo sapiens) (UniProt P49137); settings: KINOMEscan 353-kinase binding panel, qPCR; MAPKAPK2; at 10 µM; active compounds read low
MEK2 = settings: KINOMEscan 353-kinase binding panel, qPCR, at 10 µM, active compounds read low
MEK6 = settings: KINOMEscan 353-kinase binding panel, qPCR, at 10 µM, active compounds read low
MERTK = settings: KINOMEscan 353-kinase binding panel, qPCR, at 10 µM, active compounds read low
MYLK2 = settings: KINOMEscan 353-kinase binding panel, qPCR, at 10 µM, active compounds read low
[8] = target: Mitogen-activated protein kinase kinase kinase 5 (Homo sapiens) (UniProt Q99683); settings: KINOMEscan 353-kinase binding panel, qPCR; MAP3K5; at 10 µM; active compounds read low
PAK4 = settings: KINOMEscan 353-kinase binding panel, qPCR, at 10 µM, active compounds read low
PFTK1 = settings: KINOMEscan 353-kinase binding panel, qPCR, at 10 µM, active compounds read low
PHKG1 = settings: KINOMEscan 353-kinase binding panel, qPCR, at 10 µM, active compounds read low
PIK3CG = settings: KINOMEscan 353-kinase binding panel, qPCR, at 10 µM, active compounds read low
PIP5K1A = settings: KINOMEscan 353-kinase binding panel, qPCR, at 10 µM, active compounds read low
PKAC-beta = settings: KINOMEscan 353-kinase binding panel, qPCR, at 10 µM, active compounds read low
[9] = target: Protein kinase C theta type (Homo sapiens) (UniProt Q04759); settings: KINOMEscan 353-kinase binding panel, qPCR; PRKCQ; at 10 µM; active compounds read low
RPS6KA6(Kin.Dom.2) = settings: KINOMEscan 353-kinase binding panel, qPCR, at 10 µM, active compounds read low
SNARK = settings: KINOMEscan 353-kinase binding panel, qPCR, at 10 µM, active compounds read low
[10] = target: Serine/threonine-protein kinase B-raf (Homo sapiens) (UniProt P15056); settings: KINOMEscan 353-kinase binding panel, qPCR, at 10 µM, active compounds read low
[11] = target: Serine/threonine-protein kinase D1 (Homo sapiens) (UniProt Q15139); settings: KINOMEscan 353-kinase binding panel, qPCR; PRKD1; at 10 µM; active compounds read low
[12] = target: Serine/threonine-protein kinase DCLK1 (Homo sapiens) (UniProt O15075); settings: KINOMEscan 353-kinase binding panel, qPCR; DCAMKL1; at 10 µM; active compounds read low
[13] = target: Serine/threonine-protein kinase PAK 5 (Homo sapiens) (UniProt Q9P286); settings: KINOMEscan 353-kinase binding panel, qPCR; PAK7/PAK5; at 10 µM; active compounds read low
[14] = target: Serine/threonine-protein kinase PLK1 (Homo sapiens) (UniProt P53350); settings: KINOMEscan 353-kinase binding panel, qPCR, at 10 µM, active compounds read low
TAK1 = settings: KINOMEscan 353-kinase binding panel, qPCR, at 10 µM, active compounds read low
[15] = target: cAMP-dependent protein kinase catalytic subunit PRKX (Homo sapiens) (UniProt P51817); settings: KINOMEscan 353-kinase binding panel, qPCR, at 10 µM, active compounds read low

Measured: percent of control binding

Fibroblast growth factor receptor 3 (Homo sapiens), sequence (P22607 whole entry, looked up): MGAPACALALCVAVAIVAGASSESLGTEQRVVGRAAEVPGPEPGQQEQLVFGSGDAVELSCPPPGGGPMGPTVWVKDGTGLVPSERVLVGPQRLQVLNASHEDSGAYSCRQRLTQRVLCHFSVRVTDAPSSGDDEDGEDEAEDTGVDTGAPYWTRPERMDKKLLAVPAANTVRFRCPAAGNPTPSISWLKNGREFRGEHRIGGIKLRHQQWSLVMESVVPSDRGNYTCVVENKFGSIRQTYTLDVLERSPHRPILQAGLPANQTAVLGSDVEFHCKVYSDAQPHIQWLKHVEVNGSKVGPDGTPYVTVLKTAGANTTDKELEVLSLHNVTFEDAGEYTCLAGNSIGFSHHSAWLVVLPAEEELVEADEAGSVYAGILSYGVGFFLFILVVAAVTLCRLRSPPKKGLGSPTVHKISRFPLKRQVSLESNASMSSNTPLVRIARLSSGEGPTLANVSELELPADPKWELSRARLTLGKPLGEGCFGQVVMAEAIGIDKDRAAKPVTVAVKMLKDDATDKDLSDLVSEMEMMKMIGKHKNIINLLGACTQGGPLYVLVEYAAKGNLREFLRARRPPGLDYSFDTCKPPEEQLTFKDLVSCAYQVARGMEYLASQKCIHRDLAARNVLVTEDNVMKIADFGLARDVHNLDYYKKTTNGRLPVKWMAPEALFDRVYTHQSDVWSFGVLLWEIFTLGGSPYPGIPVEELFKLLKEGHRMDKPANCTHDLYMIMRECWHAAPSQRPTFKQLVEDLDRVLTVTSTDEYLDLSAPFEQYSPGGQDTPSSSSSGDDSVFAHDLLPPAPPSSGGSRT
Serine/threonine-protein kinase B-raf (Homo sapiens), sequence (P15056 whole entry, looked up): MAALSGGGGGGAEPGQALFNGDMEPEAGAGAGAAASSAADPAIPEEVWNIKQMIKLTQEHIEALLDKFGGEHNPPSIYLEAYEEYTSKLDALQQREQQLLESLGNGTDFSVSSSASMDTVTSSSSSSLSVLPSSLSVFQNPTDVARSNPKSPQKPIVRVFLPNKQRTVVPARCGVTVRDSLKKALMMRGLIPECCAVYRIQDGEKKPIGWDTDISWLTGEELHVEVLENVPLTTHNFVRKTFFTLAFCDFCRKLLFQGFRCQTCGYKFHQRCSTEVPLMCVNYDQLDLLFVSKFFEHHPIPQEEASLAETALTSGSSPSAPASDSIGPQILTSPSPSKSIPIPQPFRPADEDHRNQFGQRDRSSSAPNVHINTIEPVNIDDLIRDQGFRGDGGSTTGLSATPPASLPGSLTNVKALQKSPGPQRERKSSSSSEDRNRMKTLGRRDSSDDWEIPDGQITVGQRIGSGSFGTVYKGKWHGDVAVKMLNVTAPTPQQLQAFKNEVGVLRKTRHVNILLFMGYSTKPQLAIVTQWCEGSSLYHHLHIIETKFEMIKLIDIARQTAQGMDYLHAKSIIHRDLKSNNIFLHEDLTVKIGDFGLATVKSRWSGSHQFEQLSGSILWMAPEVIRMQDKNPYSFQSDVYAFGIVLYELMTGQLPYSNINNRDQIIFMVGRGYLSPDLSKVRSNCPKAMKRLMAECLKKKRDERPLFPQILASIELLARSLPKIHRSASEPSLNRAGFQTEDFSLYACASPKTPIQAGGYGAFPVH
High affinity nerve growth factor receptor (Homo sapiens), sequence (P04629 whole entry, looked up): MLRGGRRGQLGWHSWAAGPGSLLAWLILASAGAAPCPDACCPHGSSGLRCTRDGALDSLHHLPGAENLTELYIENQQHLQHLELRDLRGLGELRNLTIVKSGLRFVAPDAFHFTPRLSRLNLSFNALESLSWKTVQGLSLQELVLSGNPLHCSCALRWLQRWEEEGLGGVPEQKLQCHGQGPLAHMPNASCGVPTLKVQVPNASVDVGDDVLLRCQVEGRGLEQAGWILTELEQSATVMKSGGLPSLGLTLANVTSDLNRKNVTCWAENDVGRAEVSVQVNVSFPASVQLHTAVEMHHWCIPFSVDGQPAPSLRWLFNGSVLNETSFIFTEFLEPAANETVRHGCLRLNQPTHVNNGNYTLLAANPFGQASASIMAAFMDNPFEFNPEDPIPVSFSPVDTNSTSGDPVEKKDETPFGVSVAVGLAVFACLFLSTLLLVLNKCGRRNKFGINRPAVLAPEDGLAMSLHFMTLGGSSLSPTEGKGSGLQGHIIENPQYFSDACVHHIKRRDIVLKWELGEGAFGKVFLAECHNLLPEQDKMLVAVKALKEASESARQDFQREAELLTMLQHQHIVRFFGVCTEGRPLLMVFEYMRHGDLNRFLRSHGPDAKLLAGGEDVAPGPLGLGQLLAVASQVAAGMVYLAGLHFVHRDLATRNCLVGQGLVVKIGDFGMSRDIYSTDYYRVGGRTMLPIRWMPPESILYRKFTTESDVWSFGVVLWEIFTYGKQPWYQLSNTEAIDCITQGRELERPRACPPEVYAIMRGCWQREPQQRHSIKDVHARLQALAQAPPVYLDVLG
cAMP-dependent protein kinase catalytic subunit PRKX (Homo sapiens), sequence (P51817 whole entry, looked up): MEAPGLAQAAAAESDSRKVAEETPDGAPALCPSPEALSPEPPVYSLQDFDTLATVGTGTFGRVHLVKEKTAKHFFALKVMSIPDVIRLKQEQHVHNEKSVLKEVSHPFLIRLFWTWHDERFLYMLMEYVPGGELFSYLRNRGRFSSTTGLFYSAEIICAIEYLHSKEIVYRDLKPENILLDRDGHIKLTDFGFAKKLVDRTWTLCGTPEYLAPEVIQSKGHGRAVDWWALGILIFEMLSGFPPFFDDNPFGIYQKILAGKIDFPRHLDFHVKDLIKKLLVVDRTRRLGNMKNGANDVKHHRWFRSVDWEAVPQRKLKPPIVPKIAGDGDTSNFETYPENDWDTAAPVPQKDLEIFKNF
Calcium/calmodulin-dependent protein kinase type II subunit delta (Homo sapiens), sequence (Q13557 whole entry, looked up): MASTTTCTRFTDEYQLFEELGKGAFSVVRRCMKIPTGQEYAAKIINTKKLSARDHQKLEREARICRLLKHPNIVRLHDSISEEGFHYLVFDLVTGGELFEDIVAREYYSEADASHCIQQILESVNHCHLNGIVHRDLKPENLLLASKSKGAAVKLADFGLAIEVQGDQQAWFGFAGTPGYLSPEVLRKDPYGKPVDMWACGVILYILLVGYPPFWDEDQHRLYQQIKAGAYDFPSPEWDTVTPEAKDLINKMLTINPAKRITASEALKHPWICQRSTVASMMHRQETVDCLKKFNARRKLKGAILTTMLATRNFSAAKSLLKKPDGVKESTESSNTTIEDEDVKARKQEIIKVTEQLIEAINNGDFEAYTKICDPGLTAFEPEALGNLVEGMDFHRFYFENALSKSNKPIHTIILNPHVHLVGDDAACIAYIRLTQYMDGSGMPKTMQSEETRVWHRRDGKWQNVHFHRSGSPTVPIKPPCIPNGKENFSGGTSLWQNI
Serine/threonine-protein kinase PAK 5 (Homo sapiens), sequence (Q9P286 whole entry, looked up): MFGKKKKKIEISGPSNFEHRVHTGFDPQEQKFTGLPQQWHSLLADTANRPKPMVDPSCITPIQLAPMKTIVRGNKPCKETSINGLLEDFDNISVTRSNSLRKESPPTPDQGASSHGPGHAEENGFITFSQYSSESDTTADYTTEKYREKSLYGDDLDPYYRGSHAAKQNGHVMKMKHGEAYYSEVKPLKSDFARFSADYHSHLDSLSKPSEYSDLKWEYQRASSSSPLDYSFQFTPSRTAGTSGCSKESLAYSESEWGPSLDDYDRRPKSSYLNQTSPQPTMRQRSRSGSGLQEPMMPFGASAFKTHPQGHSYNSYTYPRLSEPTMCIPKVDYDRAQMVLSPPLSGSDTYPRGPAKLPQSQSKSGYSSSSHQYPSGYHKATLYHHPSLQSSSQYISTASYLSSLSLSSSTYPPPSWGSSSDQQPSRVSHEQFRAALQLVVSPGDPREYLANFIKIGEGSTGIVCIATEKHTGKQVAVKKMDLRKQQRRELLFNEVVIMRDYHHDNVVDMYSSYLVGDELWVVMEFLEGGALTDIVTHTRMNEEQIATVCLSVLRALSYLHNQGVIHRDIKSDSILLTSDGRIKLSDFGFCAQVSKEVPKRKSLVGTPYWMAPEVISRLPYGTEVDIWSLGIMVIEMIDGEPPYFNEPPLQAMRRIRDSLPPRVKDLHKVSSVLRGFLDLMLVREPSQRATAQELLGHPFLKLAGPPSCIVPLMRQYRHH
MAP kinase-activated protein kinase 2 (Homo sapiens), sequence (P49137 whole entry, looked up): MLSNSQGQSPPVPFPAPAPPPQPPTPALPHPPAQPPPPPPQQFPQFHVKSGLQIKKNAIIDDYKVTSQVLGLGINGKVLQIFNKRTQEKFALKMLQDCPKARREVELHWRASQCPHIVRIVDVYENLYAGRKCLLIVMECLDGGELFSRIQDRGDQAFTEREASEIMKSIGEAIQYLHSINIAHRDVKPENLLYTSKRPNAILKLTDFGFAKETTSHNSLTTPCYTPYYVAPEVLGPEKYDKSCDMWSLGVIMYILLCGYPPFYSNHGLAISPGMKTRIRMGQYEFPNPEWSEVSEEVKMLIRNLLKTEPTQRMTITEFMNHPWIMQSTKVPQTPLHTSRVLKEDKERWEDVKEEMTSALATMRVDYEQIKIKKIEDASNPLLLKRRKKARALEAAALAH
Dual specificity protein kinase CLK1 (Homo sapiens), sequence (P49759 whole entry, looked up): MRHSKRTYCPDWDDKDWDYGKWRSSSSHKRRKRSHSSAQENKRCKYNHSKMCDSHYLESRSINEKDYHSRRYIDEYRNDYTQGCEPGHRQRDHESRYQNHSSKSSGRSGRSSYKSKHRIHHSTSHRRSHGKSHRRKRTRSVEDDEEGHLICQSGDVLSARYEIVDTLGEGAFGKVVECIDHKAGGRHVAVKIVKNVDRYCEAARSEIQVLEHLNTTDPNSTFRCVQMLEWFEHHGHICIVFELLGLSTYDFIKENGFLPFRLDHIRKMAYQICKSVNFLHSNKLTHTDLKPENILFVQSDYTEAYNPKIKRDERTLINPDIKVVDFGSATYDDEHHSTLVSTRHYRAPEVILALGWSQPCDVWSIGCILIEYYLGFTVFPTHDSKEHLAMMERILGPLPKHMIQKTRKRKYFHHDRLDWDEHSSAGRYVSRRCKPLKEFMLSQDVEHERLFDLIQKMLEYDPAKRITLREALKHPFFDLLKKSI

Cc1cc2nc(NCCCO)n(CC(=O)c3cc(C(C)(C)C)c(O)c(C(C)(C)C)c3)c2cc1C
inactive: ACVR2A 88% | ADCK4 100% | AMPK-alpha2 100% | CAMK4 100% | CDKL2 96% | CSNK2A2 98% | [1] 89% | [2] 81% | [3] 98% | EPHA8 88% | FGFR4 81% | [4]; FGFR3(G697C) 100% | [4]; FGFR3 80% | [5] 100% | [6] 54% | [7] 81% | MEK2 87% | MEK6 97% | MERTK 100% | MYLK2 97% | [8] 100% | PAK4 92% | PFTK1 88% | PHKG1 100% | PIK3CG 86% | PIP5K1A 77% | PKAC-beta 95% | [9] 100% | RPS6KA6(Kin.Dom.2) 100% | SNARK 80% | [10]; BRAF(V600E) 70% | [10]; BRAF 88% | [11] 100% | [12] 100% | [13] 79% | [14] 67% | TAK1 100% | [15] 100%
